Source: the PolyMetriX glass transition set
± gives the standard deviation of the reports.

SMILES | glass transition temperature [°C]
*NC(CCC(=O)OCCCCCC)C(*)=O (repeat unit) | -25.00
*CC(*)c1ccc(OC(C)=O)cc1 (repeat unit) [poly(4-acetoxystyrene)] | 121.42 ± 12
*c1ccc(Oc2ccc(Oc3ccc(P(=O)(c4ccccc4)c4ccc(Oc5ccc(Oc6ccc(-c7nc8ccccc8nc7*)cc6)cc5)cc4)cc3)cc2)cc1 (repeat unit) | 209.00
*CC(*)(C)c1ccc(C)cc1 (repeat unit) | 176.00
*SC1CCCC(*)C1 (repeat unit) | -52.00
*CC/C=C(/*)CCCCCCCCCC (repeat unit) | -53.00
*c1cc(Br)c(Oc2c(Br)cc(N3C(=O)c4ccc(-c5ccc6c(c5)C(=O)N(*)C6=O)cc4C3=O)cc2Br)c(Br)c1 (repeat unit) | 287.00
*CC(*)c1ccc(Cl)c(C)c1 (repeat unit) | 114.00
*CCCCCCCCCCOc1ccc(/C=C/c2ccc(OCCCCCCCCCCOP(=O)(O*)OCCCCCCCCCCOc3ccc(/N=N/c4ccccc4)cc3)cc2)cc1 (repeat unit) | 55.00
*CCN(CCOC(=O)c1cccc(C(=O)O*)c1)c1ccc(/N=N/c2ccc(-c3nc4ccc([N+](=O)[O-])cc4n3CC)cc2)cc1 (repeat unit) | 147.00
*CCCCCCCNC(=S)N* (repeat unit) | 52.00
*c1ccc(N(c2ccc(C#N)cc2)c2ccc(-n3c(=O)c4cc5c(=O)n(*)c(=O)c5cc4c3=O)cc2)cc1 (repeat unit) | 353.00
*OP(=O)(Oc1ccc(Br)cc1)OC(CCl)COc1ccc(S(=O)(=O)c2ccc(OCC(*)CCl)cc2)cc1 (repeat unit) | 58.00
*O[Si](c1ccccc1)(c1ccccc1)c1ccc([Si](*)(c2ccccc2)c2ccccc2)cc1 (repeat unit) | 130.00
*CCCCCOC(=O)c1ccc2cc(C(=O)O*)ccc2c1 (repeat unit) | 58.50
*c1ccc2c(c1)C(=O)N(c1cc(C)c(N3C(=O)c4ccc(C(*)(C(F)(F)F)C(F)(F)F)cc4C3=O)cc1C)C2=O (repeat unit) | 367.00 ± 17
*CC(*)(C)C(=O)OCc1ccc(OCCOCC)c(OCCOCC)c1 (repeat unit) | -2.00
*CC(*)OCCOCCOCCOC (repeat unit) | -76.00
*CC(CCCCCCOc1ccc(/N=N/c2ccc(C(F)(F)F)cc2)cc1)COC(=O)CCCCC(=O)O* (repeat unit) | 44.00
*CCCCCCCCCCCCCCNC(=O)NCCCCCCNC(=O)N* (repeat unit) | 47.00
*CC(*)C(=O)OCC(C)C (repeat unit) [Poly(isobutyl acrylate) ] | -24 ± 30
*Oc1ccc(C(=O)Nc2ccc(S(=O)(=O)c3ccc(NC(=O)c4ccc(Oc5ccc(C(=O)c6ccc(S(=O)(=O)c7ccc(C(=O)c8ccc(*)cc8)cc7)cc6)cc5)cc4)cc3)cc2)cc1 (repeat unit) | 260.00
*CC(*)c1ccccc1OC(C)=O (repeat unit) | 118.00
*CC(*)(C)C(=O)OCCN(CC)c1ccc(/N=N/c2ccc(S(C)(=O)=O)cc2)cc1 (repeat unit) | 144.00
*c1ccc(-c2sc(-c3cc(CCCCCCCC)c(*)s3)cc2CCCCCCCC)cc1 (repeat unit) | 50.40
*O[Si](*)(C)CCCOc1ccc(C(=O)Oc2ccc(-c3ccc(OC(=O)c4cc(OCC(C)CC)c(OCC(C)CC)c(OCC(C)CC)c4)cc3)cc2)cc1 (repeat unit) | 60.00
*CC(*)c1ccc([Si](C)(C)O[Si](C)(C)O[Si](C)(C)C)cc1 (repeat unit) | -27.00
*OC(=O)C(Cc1ccccc1)NC(=O)CCCCCCCCCCC(=O)NC(Cc1ccccc1)C(=O)OC1COC2C(*)COC12 (repeat unit) | 76.00
*C(=O)c1ccc(Oc2ccc(-c3ccc(Oc4ccc(C(=O)c5ccc6c(c5)C(=O)N(c5ccc(Cc7ccc(N8C(=O)c9ccc(*)cc9C8=O)cc7)cc5)C6=O)cc4)cc3)cc2)cc1 (repeat unit) | 241.00
*CCCCCCCCOC(=O)c1cccc(C(=O)O*)c1 (repeat unit) | -9.00

Other lines, results leading:

glass transition temperature [°C] | SMILES
243.00 | *c1ccc(Cc2ccc(NC(=O)c3cccc(Oc4ccc5c(c4)C(=O)N(*)C5=O)c3)cc2)cc1 (repeat unit)
124.00 | *C(=O)c1ccc(Oc2ccc(C(C)(C)c3ccc(Oc4ccc(*)s4)cc3)cc2)s1 (repeat unit)
176.00 | *Oc1ccc(C2(c3ccc(Oc4ccc(C(=O)Oc5c(C)cc(C(C)(C)c6cc(C)c(OC(=O)c7ccc(*)cc7)c(C)c6)cc5C)cc4)cc3)CCC(C(C)(C)C)CC2)cc1 (repeat unit)
192.00 | *c1ccc(Oc2ccc(C(C)(C)c3ccc(Oc4ccc(N5C(=O)c6ccc(Oc7ccccc7Oc7ccc8c(c7)C(=O)N(*)C8=O)cc6C5=O)cc4C(F)(F)F)cc3)cc2)c(C(F)(F)F)c1 (repeat unit)
55.00 | *Oc1cc(OC(=O)c2ccc(OCCCC)cc2)c(OC(=O)C(C)CCC(*)=O)cc1OC(=O)c1ccc(OCCCC)cc1 (repeat unit)
183.00 | */C(=C(\C#N)c1ccc(C(=O)OC2CCN(*)CC2)cc1)c1ccc(OC)cc1 (repeat unit)
270.00 | *C(=O)Oc1ccc(OC(=O)c2ccc3c(c2)C(=O)N(c2ccc(Oc4ccc(N5C(=O)c6ccc(*)cc6C5=O)cc4)cc2)C3=O)cc1 (repeat unit)
232.00 | *c1ccc(Cc2ccc(N3C(=O)c4ccc([Si](C)(C)O[Si](C)(C)c5ccc6c(c5)C(=O)N(*)C6=O)cc4C3=O)cc2)cc1 (repeat unit)
270.00 | *c1ccc(Oc2ccc(C(c3ccc(Oc4ccc(N5C(=O)c6ccc7c8c(ccc(c68)C5=O)C(=O)N(*)C7=O)cc4)c(S(=O)(=O)O)c3)(C(F)(F)F)C(F)(F)F)cc2S(=O)(=O)O)cc1 (repeat unit)
123.50 | *Oc1ccc(C(C)(C)c2ccc(OC(=O)NC(=O)c3cc(C(=O)NC(*)=O)cc(C(C)(C)C)c3)cc2)cc1 (repeat unit)
48.00 | *OCCOC(=O)CCCCC(=O)OCCOc1nc(-c2ccc(OC)cc2)nc(*)c1-c1ccc(OC)cc1 (repeat unit)
253.00 | *c1cccc(N2C(=O)c3ccc(Oc4ccc5c(c4)C4(CC(C)(C)c6ccc(Oc7ccc8c(c7)C(=O)N(*)C8=O)cc64)CC5(C)C)cc3C2=O)c1 (repeat unit)
73.13 | *COc1ccc(C(C)(C)c2ccc(Oc3ccc(*)n3-c3ccc(C#N)cc3)cc2)cc1 (repeat unit)
115.00 | *CCN(CCOC(=O)Nc1ccc(Cc2ccc(NC(=O)O*)cc2)cc1)c1ccc(/N=N/c2ccc([N+](=O)[O-])cc2)c(C)c1 (repeat unit)
107.00 | *Oc1ccc(Sc2ccc(OC(=O)OC3C(C)(C)C(OC(*)=O)C3(C)C)cc2)cc1 (repeat unit)
162.00 | *Oc1ccc(/C=N/N=C/c2ccc(Oc3ccc(C(c4ccc(*)cc4)(C(F)(F)F)C(F)(F)F)cc3)cc2)cc1 (repeat unit)
